Measured values: US20080286355A1, “Protease Inhibitors For the Treatment of Digestive Pathologies” (priority 2004, published 2008)

Assays:
Format in all cases: in vivo
male Wistar rats [1] = assay: Colon mucosa permeability to 51Cr-EDTA, radioactivity in 24-hour urine of rats; conditions: rat; SLIGRL 0.05, 0.2 and 0.5 mg/rat into colon lumen at t=0; 10-hour intracolonic 51Cr-EDTA infusion; vs solvent
Method: Six groups of eight male Wistar rats (200-250 g) were used for this study. The animals were fitted with an indwelling intracolonic catheter in the proximal colon (3 cm from the caeco-colic junction). In these experiments, four groups of rats received a 10-hour intracolonic infusion of ^51Cr-EDTA ([…]). The animals were placed in separate cages and total 24-hour urine was collected. Radioactivity was measured in the urine to evaluate the permeability of the colon mucosa to ^51Cr-EDTA. Increasing doses of the PAR-2 activator peptide (SLIGRL) were injected in the colon lumen (groups 2, 3 and 4) at time t=0 (start of ^51Cr-EDTA infusion) at a dose of 0.05, 0.2 and 0.5 mg/rat. Group 1 received the solvent.

male Swiss mice [2] = assay: Paracellular permeability in mouse colon (51Cr-EDTA) during intracolonic infusion of protease inhibitors; conditions: 5-hour intracolonic infusion 250 μl/h, 51Cr-EDTA from hours 3 to 5
Method: Six groups of ten male Swiss mice (25-30 g) were used for this study. The animals received a 5-hour intracolonic infusion (250 μl/h) of the different protease inhibitor solutions through a catheter inserted through the rectum and fixed at the base of the tail; ^51Cr-EDTA was added to the infusion from hours 3 to 5 (FIG. 2). At t=5 hours, the animals were sacrificed, the colons removed, and total radioactivity remaining in the body was taken as an indicator of paracellular permeability.

male Wistar rats [3] = assay: Rectal sensitivity to distention (abdominal contractions, EMG) after intracolonic trypsin; conditions: rat, distention at t=10 h, distention volumes 0.8, 1.2 and 1.6 ml, vs solvent control
Method: At time t=0, the animals received an intracolonic infusion of trypsin ([…]), a specific PAR-2 receptor activator at the dose of 20 units (group 1) or solvent (group 2). At time t=10 h after the intracolonic trypsin infusion, the animals were subjected to the rectal distention protocol.

male Swiss mice [4] = assay: Colon paracellular permeability in mice after trypsin, supernatant of colon contents and antibiotic cocktail; conditions: mouse, intracolonic trypsin 50 μL
Method: Groups of ten male Swiss mice (Janvier-France) weighing 25-30 g were used for this study. In baseline conditions, the effects on colon paracellular permeability of intracolonic infusion of trypsin (50 μL, 600 U) and of supernatant of colon contents taken from control mice and given by a 3-hour intracolonic infusion (250 μL/h) on one day (D1) or on two consecutive days (D2) were evaluated. The same infusions were then repeated after 12 days of treatment with oral an antibiotic cocktail (neomycin 2 mg/kg/day+ampicillin 1 mg/kg/day).

With SLIGRL the “permeability to 51Cr-EDTA (recovery in 24-hour urine)” value (male Wistar rats [1]) was “dose-dependent increase”.
CNC(=O)[C@H](Cc1c[nH]c2ccccc12)NC(=O)[C@@H](CC(=O)NO)CC(C)C [galardin] was tested, and the “paracellular permeability (total radioactivity remaining in the body)” value (male Swiss mice [2]) was “significantly lower”.
trypsin was tested, and the “abdominal response to rectal distention” value (male Wistar rats [3]) was “significant decrease”, the “increase in colon permeability after the antibiotic treatment” value (male Swiss mice [4]; 600 U after 12 days of antibiotic cocktail) was “disappeared” and the “colon paracellular permeability, baseline conditions” value (male Swiss mice [4]; 600 U, normal mice) was “increase”.
aprotinin was tested, and the “paracellular permeability (total radioactivity remaining in the body)” value (male Swiss mice [2]) was “significantly lower”.
